Patent publication US20130018193A1, “DEUTERATED PIRFENIDONE” (CONCERT Pharmaceuticals Inc., priority 2007, published 2013)

Columns and labels:
[1] = Pharmacokinetics of Compounds 106 and 108 after intravenous and oral dosing in chimpanzees; type: in vivo; conditions: chimps; for AUC(0-inf) / clearance / half-life / Cmax: both sexes, plasma, 100 mg each co-dosed; for half-life: 30 minute infusion
Protocol: Chimpanzees (one male and one female for each route of administration) were administered a combination of 100 mg of Compound 106, 100 mg of Compound 108 and 100 mg of pirfenidone in 10% DMI (dimethyl isosorbide), 15% ethanol, 35% PG in distilled water (total volume 150 ml) by either oral or intravenous dosing. Intravenous dosing was performed by infusion over a 30 minute period. Blood samples from the orally dosed chimps were collected just prior to dosing and at 15, 30, 60, 90, 120, 240, 360, 480, 600, 720 and 1440 minutes post-dosing. Blood samples (4.5 ml) from the intravenously dosed chimps were collected just prior to infusion, at 15 and 29.5 minutes after the start of infusion, and then at 6, 15, 30, 45, 60, 120, 240, 360, 480, 600, 720 and 1440 minutes post-infusion. Plasma was isolated and prepared for analysis by mixing 0.1 ml of plasma with 300 μL of indiplon in (50 ng/ml in acetonitrile/water; 90/10; v/v) as an internal standard, vortexing and then centrifuging to remove any precipitated protein.
Plasma samples (10 μl) were injected to a Zorbax SB-C8 (Rapid Resolution) column (2.1×30 mm, 3.5 μm). The initial mobile phase condition was 100% A (water with 0.1% formic acid) and 0% B (acetonitrile with 0.1% formic acid) with a flow rate at 0.75 mL/min. Mobile phase B was allowed to reach 100% in 0.75 minutes and held for 1.0 minute before ramping back to 0% in another 0.1 minute. The overall run time was 3 minutes. The precursor/product ion pairs were set at m/z 186/92, m/z 191/97, m/z 189/95 and m/z 377/293 for detecting pirfenidone, Compound 106, Compound 108 and indiplon, respectively. Plasma concentration data for each compound in each animal was individually fitted to a 2-compartment model using WinNonLin version 5.2 (PK Model #9) with weighting of 1/y.

[2] = Pharmacokinetics of Compound 106 after intravenous and oral dosing in rats; type: in vivo, Male Sprague-Dawley rats; conditions: for half-life / AUC(0-inf): male, Sprague-Dawley, rat, plasma; for half-life: 8 mg/kg co-dosed with pirfenidone; for AUC(0-inf): 8 mg/kg co-dosed
Protocol: Male Sprague-Dawley rats (3 for each route of administration) were administered a combination of 8 mg/kg of Compound 106 and 8 mg/kg of pirfenidone in 10% DMI (dimethyl isosorbide), 15% ethanol, 35% PG in distilled water by either oral or intravenous dosing. Blood samples from the dosed rats were collected prior to dosing and at 15, 30, 45, 60, 75, 90, 120, 240, and 360 minutes post-dosing. Plasma was isolated and prepared for analysis by mixing 0.1 ml of plasma in an Eppendorf tube with 20 μL methanol and 500 μL of quetiapine (50 ng/ml as an internal standard), vortexing for 1 minute and then centrifuging at 15,000 rpm for 5 minutes to remove any cellular debris. Plasma samples were analyzed by LC-MS/MS.
LC was performed using an Agilent (Agilent Technologies Inc. USA) liquid chromatograph equipped with an isocratic pump (1100 series), an autosampler (1100 series) and a degasser (1100 series). Plasma samples (2 μL) were run at 25° C. on a Phenomenex Gemini, C18, 5 μm, (50 mm×2.0 mm) column using 0.1% formic acid:methanol (30:70) as the mobile phase with an elution rate of 300 μL/min.
Mass spectrometric analysis was performed on plasma samples (2 μL) prepared as set forth above using an API3000 (triple-quadrupole) instrument from AB Inc (Canada) with an ESI interface. The data acquisition and control system were created using Analyst 1.4 software from ABI Inc.

[3] = Pharmacokinetics of Compound 108 and 109 after intravenous and oral dosing in rats; type: in vivo, Male Sprague-Dawley rats; conditions: 8 mg/kg co-dosed with 8 mg/kg pirfenidone; for % Change compared to Pirfenidone, AUC0-∞ / % Change compared to Pirfenidone, Clearance / % Change compared to Pirfenidone, Half-life: IV dosing; for % Change compared to Pirfenidone, Cmax: oral dosing

AUC(0-inf) ([1]; IV dosing (Avg)) [ng·h/mL] | clearance ([1]; IV dosing (Avg)) [mL/min/kg] | half-life ([1]; IV dosing (Avg)) [h] | AUC(0-inf) ([1]; oral dosing (Avg)) [ng·h/mL] | Cmax ([1]; oral dosing (Avg)) [ng/mL] | increase in AUC as compared to pirfenidone ([1]; intravenous administration) [%] | increase in half-life as compared to pirfenidone ([1]; intravenous administration) | increase in AUC as compared to pirfenidone ([1]; oral dosing) | increase in Cmax as compared to pirfenidone ([1]; oral dosing) | increase in AUC as compared to pirfenidone ([2]; intravenous administration) [%] | increase in half-life as compared to pirfenidone ([2]; intravenous administration) [%] | half-life ([2]; IV dosing) [h] | AUC(0-inf) ([2]; IV dosing) [ng·h/mL] | AUC(0-inf) ([2]; oral dosing) [ng·h/mL] | increase in AUC as compared to pirfenidone ([2]; oral dosing) [%] | % Change compared to Pirfenidone, AUC0-∞ [3] | % Change compared to Pirfenidone, Clearance [3] [%] | % Change compared to Pirfenidone, Half-life [3] | % Change compared to Pirfenidone, Cmax [3] | Compound
6900 | 4.37 | 1.4 | 1260 | 340 | ~50 | greater than 10% | greater than 50% | greater than 50% | 72 | 62 | 1.2 | 20100 | 13800 | 75 | – | – | – | – | [2H]c1cc(C([2H])([2H])[2H])c([2H])n(-c2ccccc2)c1=O [Compound 106, 3,6-Dideutero-5-(methyl-d3)-1-phenylpyridin-2(1H)-one]
7000 | 4.58 | 1.5 | 1350 | 360 | ~50 | greater than 20% | ~60% | ~60% | – | – | – | – | – | – | +42% | −29 | +37% | +31% | [2H]C([2H])([2H])c1ccc(=O)n(-c2ccccc2)c1 [Compound 108, 5-(Methyl-d3)-1-phenylpyridin-2(1H)-one]
– | – | – | – | – | – | – | – | – | – | – | – | – | – | – | +29% | −23 | +41% | +19% | [2H]c1c([2H])c([2H])c(-n2cc(C([2H])([2H])[2H])ccc2=O)c([2H])c1[2H] [Compound 109]
4800 | 6.57 | 1.2 | 830 | 230 | – | – | – | – | – | – | 0.74 | 11600 | 7910 | – | – | – | – | – | Cc1ccc(=O)n(-c2ccccc2)c1 [Pirfenidone, 5-methyl-1-phenylpyridin-2(1H)-one]
